The record followed here is patent US20050053555A1, “Appetite control compositions and methods of use” (Crave Busters, LLC., priority 2003, published 2005).

In this assay the test system is sweetness taste receptors of the tongue. Description: blocking the sense of sweetness by topical delivery to mouth and tongue. Particulars: about 10 mg to about 80 mg glycyrrhizin delivered concurrently with gymnemic acid. Format: in vivo. The source says:
Without being bound to any particular theory of action, it is currently believed that the appetite control compositions according to the invention deliver a relatively small dose of an active ingredient, gymnemic acid, directly to the sweetness taste receptors of the tongue, which blocks the sense of sweetness and thereby produces appetite control.
Gymnema sylvestre is commonly called Gurmar. It is well known in the art as a “sugar blocker.” Gymnema sylvestre contains the bitter principle gymnemic acid, which is well known for its ability to bind to the sweetness taste receptors on the tongue and to sugar absorption sites in the gut. Formerly, Gymnema sylvestre and extracts standardized to deliver gymnemic acid have been incorporated into traditional dosage forms to take advantage of its ability to block the absorption of sugar from the gut. […]
The appetite control compositions according to the invention include Gymnema sylvestre herb or, preferably, an extract of Gymnema sylvestre herb designed to maximize the quantity of gymnemic acid it contains. […]
In some embodiments, the appetite control compositions according to the invention include Glycyrrhiza glabra root or, preferably, an extract of Glycyrrhiza glabra root designed to maximize the quantity of glycyrrhizin it contains. […]

Structures are written as SMILES.

As for `CC1(C)[C@@H](O[C@H]2O[C@H](C(=O)O)[C@@H](O)[C@H](O)[C@H]2O[C@@H]2O[C@H](C(=O)O)[C@@H](O)[C@H](O)[C@H]2O)CC[C@]2(C)[C@H]3C(=O)C=C4[C@@H]5C[C@@](C)(C(=O)O)CC[C@]5(C)CC[C@@]4(C)[C@]3(C)CC[C@@H]12` [glycyrrhizin], the “effect on quantity of gymnemic acid required to block the sense of sweetness for 1 to 2 hours” value was “effectively reduces the quantity of gymnemic acid required”.
